Patent US20220275390A1, “RUBISCO-BINDING PROTEIN MOTIFS AND USES THEREOF” (The Trustees of Princeton University, priority 2019, published 2022)
Residues, ends and D or L forms follow the SMILES beside them.

What was measured:
Rubisco = target: T1, Rubisco (Chlamydomonas reinhardtii, UniProt P00873); test: Surface plasmon resonance (SPR) assay of peptides binding to immobilized Rubisco
T1 construct: Rubisco was purified from Chlamydomonas reinhardtii strain cMJ030; endogenous in cells; host or cells: Chlamydomonas reinhardtii strain cMJ030 (wild type); holoenzyme purified from lysate by sucrose gradient and anion exchange
Description: Surface Plasmon Resonance (SPR) Assay Rubisco was immobilized on a surface and peptides in solution were flowed over the surface. Surface plasmon measurements of binding of individual peptides to Rubisco were assayed (FIG. 3B).
Rubisco was purified from Chlamydomonas reinhardtii strain cMJ030. Cells were disrupted by ultrasonication in lysis buffer (10 mM MgCl2, 50 mM Bicine, 10 mM NaHCO3, 1 mM dithiothreitol (DTT) pH 8.0) supplemented with Halt Protease Inhibitor Cocktail, EDTA-Free (Fisher Scientific). The soluble lysate was fractionated by ultracentrifuge in a 10%-30% sucrose gradient in a SW 41 Ti rotor at 35,000 rpm for 20 hours at 4° C. Rubisco-containing fractions were applied to an anion exchange column (MONO Q 5/50 GL, GE Healthcare) and fractionated by using a linear salt gradient from 0 to 0.5 M NaCl (10 mM MgCl2, 50 mM Bicine, 10 mM NaHCO3, 1 mM dithiothreitol pH 8.0).
Mutagenesis of EPYC1, Mutagenesis of Rubisco, Yeast Two-hybrid, Peptide Arrays and SPR Assays To determine the importance of individual EPYC1 residues for binding to Rubisco, the impact on Rubisco binding of every possible single amino acid substitution for EPYC1 RBM 2 was determined (FIG. 8). […]
SPR Assays: The Rubisco-binding capacity for the C-terminal motif variant (W[+]xxΨ ) was determined using SPR by probing purified Rubisco with fifteen amino acid-long synthetic peptides. […]

C. reinhardtii cells = test: Confocal fluorescence microscopy localization of Venus fusion proteins; format: cell-based, Chlamydomonas reinhardtii; settings: Venus fluorescence in C. reinhardtii cells
From the text: A synthetic […] (Invitrogen) containing a 643 bp restriction fragment containing the C-terminus of Venus, followed by the sequence coding for the FLAG-tag sequence, and a sequence coding for three repetitions of the 15 C-terminal amino acids of SAGA2, was cloned into pLM005-FDX1, after restriction digestion with EcoRl and PfIMI. GenBank accession number of the empty pLM005 is KX077945.1. The plasmid pLM005-FDX1 is identical to pLM005 with the genomic sequence of FDX1 cloned in frame by Gibson Assembly (Mackinder et al., PNAS 113: 5958-5963, 2015) between residues 2698 and 3234. The terminal 85 amino acids of resultant mature fusion protein, immediately downstream of the FLAG-tag, were a 5 aa linker (GGGGS; SEQ ID NO: 87), a first copy of SAGA2 15 C-terminal aa, followed by a 10 aa linker (2X GGGGS; SEQ ID NO: 88), a second copy of SAGA2 15 last aa, another 10 aa linker (2X GGGGS; SEQ ID NO: 88), and finally a third copy of SAGA2 15 last aa. The sequence of the EcoRI-PfIMI digestion fragment (SEQ ID NO: 89) was cloned in frame into pLM005-FDX1.
Culturing and Transformation of C. reinhardtii: Culturing and transformation of C. reinhardtii for fluorescence localization of protein and imaging was performed as described in Mackinder et al. (PNAS 113: 5958-5963, 2015). […]

T1 sequence (P00873 46-185, other chains not shown): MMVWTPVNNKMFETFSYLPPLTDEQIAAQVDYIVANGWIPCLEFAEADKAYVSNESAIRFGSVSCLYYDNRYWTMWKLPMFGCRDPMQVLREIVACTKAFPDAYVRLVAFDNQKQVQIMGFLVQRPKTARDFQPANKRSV

| Compound | Kd (Rubisco; KD, 24 amino acid EPYC1 fragment spanning RBM 2 binding to Rubisco, FIG. 4C) [mM] | Kd (Rubisco; Kd, individual EPYC1 RBM peptides binding to Rubisco) [mM] | localization pattern within the pyrenoid (C. reinhardtii cells; FIG. 15) | localization (C. reinhardtii cells; FIGS. 14B and 15) |
| --- | --- | --- | --- | --- |
| CC(C)C[C@H](NC(=O)[C@H](CO)NC(=O)[C@H](CCC(=O)O)NC(=O)[C@H](CC(C)C)NC(=O)[C@H](CCC(=O)O)NC(=O)[C@H](CCC(N)=O)NC(=O)[C@H](CCCNC(=N)N)NC(=O)[C@H](Cc1c[nH]c2ccccc12)NC(=O)[C@H](CC(N)=O)NC(=O)[C@H](C)NC(=O)[C@@H]1CCCN1C(=O)[C@H](CC(C)C)NC(=O)[C@@H](NC(=O)[C@H](CO)NC(=O)[C@H](CCCNC(=N)N)NC(=O)[C@@H](NC(=O)[C@@H]1CCCN1C(=O)[C@H](CO)NC(=O)[C@@H](NC(=O)[C@H](CCCNC(=N)N)NC(=O)[C@H](CC(N)=O)NC(=O)[C@@H](N)[C@@H](C)O)C(C)C)[C@@H](C)O)C(C)C)C(=O)N[C@@H](CCCNC(=N)N)C(=O)N[C@@H](CC(N)=O)C(=O)O [EPYC1 fragment] (H-TNRVSPTRSVLPANWRQELESLRN-OH) | 3.09 | 3 |  |  |
| RBMP2-Venus: Rubisco-Binding Membrane Protein 2 (SEQ ID NO: 2) fused to the Venus fluorescent protein |  |  | confined to the very heart of the pyrenoid | localized to the pyrenoid |
